Measurements published in patent publication US20240376094A2, “SELECTIVE BCL-XL PROTAC COMPOUNDS AND METHODS OF USE” (Les Laboratoires Servier, priority 2021, published 2024).

What was measured:
Assay type in all cases: cell-based
[1] = system: MOLT-4 cells; test: MOLT-4 cell viability, MTT assay; settings: Homo sapiens, MOLT-4, 48 h
Text: The MTT colorimetric assay is based on the mitochondrial reduction of tetrazolium salt by living cells. The viable cell number is proportional to the production of formazan salts, which can be read spectrophotometrically at 540 nm. The CTG luminescent assay (CellTiter GLO, Promega) is based on a reagent which lyses cells and measures total adenosine triphosphate (ATP) content. The viable cell number is proportional to the production of ATP.
MOLT-4 cells were purchased from ATCC and cultivated in RPMI 1640 supplemented with 10% heat inactivated fetal bovine serum, penicillin (100 IU/mi), streptomycin (100 μg/ml) and L-glutamine (2 mM). Cells were cultured at 37° C. in a humidified atmosphere containing 5% […].
For MTT assay, cells were seeded in 96 microwell plates (150 μL per well) and exposed to the compounds for 48 h (3.16 fold serially diluted; 9 concentrations each, triplicates). At the end of incubation time, 15 μL of MTT solution (5 mg/ml) were added per well and the cells were incubated for another 4 h. Then, 100 μL of 10% Sodium Dodecyl Sulfate (SDS)/HCl 10 mM were added per well and the plate was incubated overnight, before measurement of optical density at 540 nm.
IC50, were calculated using standard four-parametric curve fitting. IC50 is defined as the compound concentration at which the MTT or CTG signal is reduced to 50% of that measured for the control. Results shown in Table 14 represent the mean of at least 2 independent experiments.

[2] = system: MOLT-4 cells; test: MOLT-4 cell viability, CTG assay; settings: Homo sapiens, MOLT-4, 48 h
In short: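 Cells grown in RPMI 1640 with 10% FBS at 37° C, 5% CO2, then exposed to compounds for 48 h (11-point 5-fold dilution, triplicates). ATP measured by CellTiter-Glo luminescence; IC50 from four-parameter fit versus control, mean of ≥2 independent experiments.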

[3] = molecular target: T1, Bcl-xL (Homo sapiens, UniProt Q07817); test: HCT116 Bcl-xL degradation, capillary-based immunoassay (WES); settings: for remaining activity at 0.01 µM / remaining activity at 0.1 µM: HCT-116, 24 h, % of untreated cells; for remaining activity at 0.01 µM: HCT116, 10 nM; for remaining activity at 0.1 µM: HCT116, 100 nM; for DC50: HCT116, 24 h, 9-point serial dilution
T1 construct: Measured levels of Bcl-xL protein of HCT116 cells treated with the tested compounds; host or cells: HCT116
T1 sequence (Q07817 whole entry): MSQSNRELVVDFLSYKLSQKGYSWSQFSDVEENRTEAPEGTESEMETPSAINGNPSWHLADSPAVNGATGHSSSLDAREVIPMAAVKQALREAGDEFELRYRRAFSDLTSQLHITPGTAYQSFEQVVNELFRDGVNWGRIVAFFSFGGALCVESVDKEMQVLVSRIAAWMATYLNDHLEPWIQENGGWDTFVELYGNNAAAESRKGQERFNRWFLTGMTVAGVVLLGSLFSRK
In short: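 HCT116 cells treated 24 h with compound at 10/100 nM and/or 9-point dilution (quadruplicates), then lysed. Bcl-xL measured by capillary WES immunoassay, normalized to cofilin and expressed as % of untreated cells. DC50 from four-parameter curve fit.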

| IC50 [1] | IC50 [2] | remaining activity at 0.01 µM [3] | remaining activity at 0.1 µM [3] | DC50 [3] | SMILES |
| --- | --- | --- | --- | --- | --- |
| 86.4 nM | – | 61% | 39% | 53 nM | Cc1cc(N(CCCCCn2cc(COCCOCCOCCNC(=O)COc3cccc4c3C(=O)N(C3CCC(=O)NC3=O)C4=O)nn2)c2ccc(-c3cnn(CC45CC6(C)CC(C)(C4)CC(OCCN(C)C)(C6)C5)c3C)c(C(=O)O)n2)nnc1Nc1nc2ccccc2s1 (stereo not shown) [Example 63, 6-[[6-(1,3-benzothiazol-2-ylamino)-5-methyl-pyridazin-3-yl]-[5-[4-[2-[2-[2-[[2-[2-(2,6-dioxo-3-piperidyl)-1,3-dioxo-isoindolin-4-yl]oxyacetyl]amino]ethoxy]ethoxy]ethoxymethyl]triazol-1-yl]pentyl]amino]-3-[1-[[3-[2-(dimethylamino)ethoxy]-5,7-dimethyl-1-adamantyl]methyl]-5-methyl-pyrazol-4-yl]pyridine-2-carboxylic acid] |
| 0.311 nM | – | – | – | 3.08 nM | Cc1c(Nc2nc3ccccc3s2)nnc2c1CCCN2c1ccc(-c2cnn(CC34CC5(C)CC(C)(C3)CC(OCCN(C)CCCCCCCCCCCCOc3ccc6c(c3)C(=O)N(C3CCC(=O)NC3=O)C6=O)(C5)C4)c2C)c(C(=O)O)n1 (stereo not shown) [Example 140, 6-[3-(1,3-benzothiazol-2-ylamino)-4-methyl-6,7-dihydro-5H-pyrido[2,3-c]pyridazin-8-yl]-3-[1-[[3-[2-[12-[2-(2,6-dioxo-3-piperidyl)-1,3-dioxo-isoindolin-5-yl]oxydodecyl-methyl-amino]ethoxy]-5,7-dimethyl-1-adamantyl]methyl]-5-methyl-pyrazol-4-yl]pyridine-2-carboxylic acid] |
| 19.3 nM | – | – | – | 14.5 nM | Cc1cc(N(CCCCCn2cc(CCCCCCCNc3cccc4c3C(=O)N(C3CCC(=O)NC3=O)C4=O)nn2)c2ccc(-c3cnn(CC45CC6(C)CC(C)(C4)CC(OCCN(C)C)(C6)C5)c3C)c(C(=O)O)n2)nnc1Nc1nc2ccccc2s1 (stereo not shown) [Example 150, 6-[[6-(1,3-benzothiazol-2-ylamino)-5-methyl-pyridazin-3-yl]-[5-[4-[7-[[2-(2,6-dioxo-3-piperidyl)-1,3-dioxo-isoindolin-4-yl]amino]heptyl]triazol-1-yl]pentyl]amino]-3-[1-[[3-[2-(dimethylamino)ethoxy]-5,7-dimethyl-1-adamantyl]methyl]-5-methyl-pyrazol-4-yl]pyridine-2-carboxylic acid] |
| 27.5 nM | – | 59% | 40% | – | Cc1cc(N(CCCCCn2cc(COCCOCCOCCOCCNc3cccc4c3C(=O)N(C3CCC(=O)NC3=O)C4=O)nn2)c2ccc(-c3cnn(CC45CC6(C)CC(C)(C4)CC(OCCN(C)C)(C6)C5)c3C)c(C(=O)O)n2)nnc1Nc1nc2ccccc2s1 (stereo not shown) [Example 153, 6-[[6-(1,3-benzothiazol-2-ylamino)-5-methyl-pyridazin-3-yl]-[5-[4-[2-[2-[2-[2-[[2-(2,6-dioxo-3-piperidyl)-1,3-dioxo-isoindolin-4-yl]amino]ethoxy]ethoxy]ethoxy]ethoxymethyl]triazol-1-yl]pentyl]amino]-3-[1-[[3-[2-(dimethylamino)ethoxy]-5,7-dimethyl-1-adamantyl]methyl]-5-methyl-pyrazol-4-yl]pyridine-2-carboxylic acid] |

More lines, now with the values behind:

| SMILES | IC50 [1] | IC50 [2] | remaining activity at 0.01 µM [3] | remaining activity at 0.1 µM [3] | DC50 [3] |
| --- | --- | --- | --- | --- | --- |
| Cc1ncsc1-c1ccc([C@H](C)NC(=O)C2C[C@@H](O)CN2C(=O)C(NC(=O)CCCCCN(C)CCOC23CC4(C)CC(C)(CC(Cn5ncc(-c6ccc(N7CCCc8c7nnc(Nc7nc9ccccc9s7)c8C)nc6C(=O)O)c5C)(C4)C2)C3)C(C)(C)C)cc1 (stereo in doubt) [Example 8, 6-[3-(1,3-benzothiazol-2-ylamino)-4-methyl-6,7-dihydro-5H-pyrido[2,3-c]pyridazin-8-yl]-3-[1-[[3-[2-[[6-[[(1S)-1-[(2S,4R)-4-hydroxy-2-[[(1S)-1-[4-(4-methylthiazol-5-yl)phenyl]ethyl]carbamoyl]pyrrolidine-1-carbonyl]-2,2-dimethyl-propyl]amino]-6-oxo-hexyl]-methyl-amino]ethoxy]-5,7-dimethyl-1-adamantyl]methyl]-5-methyl-pyrazol-4-yl]pyridine-2-carboxylic acid] | 6.56 nM | 34.3 nM | 54% | 37% | – |
| Cc1c(Nc2nc3ccccc3s2)nnc2c1CCCN2c1ccc(-c2cnn(CC34CC5(C)CC(C)(C3)CC(OCCN(C)CCOCCNc3cccc6c3C(=O)N(C3CCC(=O)NC3=O)C6=O)(C5)C4)c2C)c(C(=O)O)n1 (stereo not shown) [Example 9, 6-[3-(1,3-benzothiazol-2-ylamino)-4-methyl-6,7-dihydro-5H-pyrido[2,3-c]pyridazin-8-yl]-3-[1-[[3-[2-[2-[2-[[2-(2,6-dioxo-3-piperidyl)-1,3-dioxo-isoindolin-4-yl]amino]ethoxy]ethyl-methyl-amino]ethoxy]-5,7-dimethyl-1-adamantyl]methyl]-5-methyl-pyrazol-4-yl]pyridine-2-carboxylic acid] | 5.21 nM | 12.9 nM | 61% | 41% | 10.5 nM |
| Cc1cc(N(CCCCCn2cc(COCCOCCOCC(=O)Nc3cccc4c3CN(C3CCC(=O)NC3=O)C4=O)nn2)c2ccc(-c3cnn(CC45CC6(C)CC(C)(C4)CC(OCCN(C)C)(C6)C5)c3C)c(C(=O)O)n2)nnc1Nc1nc2ccccc2s1 (stereo not shown) [Example 28, 6-[[6-(1,3-benzothiazol-2-ylamino)-5-methyl-pyridazin-3-yl]-[5-[4-[2-[2-[2-[[2-(2,6-dioxo-3-piperidyl)-1-oxo-isoindolin-4-yl]amino]-2-oxo-ethoxy]ethoxy]ethoxymethyl]triazol-1-yl]pentyl]amino]-3-[1-[[3-[2-(dimethylamino)ethoxy]-5,7-dimethyl-1-adamantyl]methyl]-5-methyl-pyrazol-4-yl]pyridine-2-carboxylic acid] | 8.63 nM | – | 81% | 46% | – |
| Cc1cc(N(CCCCCn2cc(COCCOCCNc3cccc4c3C(=O)N(C3CCC(=O)NC3=O)C4=O)nn2)c2ccc(-c3cnn(CC45CC6(C)CC(C)(C4)CC(OCCN(C)C)(C6)C5)c3C)c(C(=O)O)n2)nnc1Nc1nc2ccccc2s1 (stereo not shown) [Example 61, 6-[[6-(1,3-benzothiazol-2-ylamino)-5-methyl-pyridazin-3-yl]-[5-[4-[2-[2-[[2-(2,6-dioxo-3-piperidyl)-1,3-dioxo-isoindolin-4-yl]amino]ethoxy]ethoxymethyl]triazol-1-yl]pentyl]amino]-3-[1-[[3-[2-(dimethylamino)ethoxy]-5,7-dimethyl-1-adamantyl]methyl]-5-methyl-pyrazol-4-yl]pyridine-2-carboxylic acid] | 16.4 nM | – | 46% | 16% | 7.49 nM |
| Cc1cc(N(CCCCCn2cc(COCCOCCOCCNc3cccc4c3C(=O)N(C3CCC(=O)NC3=O)C4=O)nn2)c2ccc(-c3cnn(C[C@@]45C[C@]6(C)C[C@](C)(C4)C[C@](OCCN(C)C)(C6)C5)c3C)c(C(=O)O)n2)nnc1Nc1nc2ccccc2s1 (stereo partly shown) [Example 62, 6-[[6-(1,3-benzothiazol-2-ylamino)-5-methyl-pyridazin-3-yl]-[5-[4-[2-[2-[2-[[2-(2,6-dioxo-3-piperidyl)-1,3-dioxo-isoindolin-4-yl]amino]ethoxy]ethoxy]ethoxymethyl]triazol-1-yl]pentyl]amino]-3-[1-[[3-[2-(dimethylamino)ethoxy]-5,7-dimethyl-1-adamantyl]methyl]-5-methyl-pyrazol-4-yl]pyridine-2-carboxylic acid] | 24.1 nM | – | 47% | 7% | 13.6 nM |
